Test results from patent US7371742B2, “Porphyrin derivatives for photodynamic therapy” (Institut Curie, priority 2001, dated 2008).
Read-outs that look alike come from different tables or passages of the source.

How the values were obtained:
[1] = test system: RBY-79 (indifferently named Y-79) cells; assay: RBY-79 (Y79) cell cytotoxicity / photocytotoxicity; details: for cytotoxic for Y79 (in words): without light, remark of the inventors; for Photocytotoxicity RBY-79, concentration giving 50%: with light
Source text: Columns HT29 and Y79 (═RBY79), without light, correspond to the cytotoxic activity.

[2] = test system: human colic adenocarcinoma cell line HT29; assay: HT29 cell survival (MTT assay) after 24 h incubation, with or without light irradiation; details: for Photocytotoxicity HT 29, concentration giving 50%: 50% effect, with light; for cytotoxic for HT29 (in words): without light, remark of the inventors
Description: HT29 cells were cultivated in Dulbecco's MEM supplemented with 10% fetal calf serum (FCS). Cells from log-phase culture were seeded in 24-microwell plates (1 mL-5×10^4 cells/well) and kept at 37° C. in a water-jacketed incubator for 2 days under an air/CO2 atmosphere (5% CO2). Tested compounds, in DMSO solution, were added under the minimum volume (5 μL) to reach a concentration ranging from 0.1 to 10 μg/mL. Controls cells received 5 μL of DMSO free of dye. Plates were incubated 24 h, then medium was removed and the cells were washed twice with phosphate buffered saline (PBS) before addition of fresh medium free of drug and irradiation with visible light using a home made “light box” giving a fluence of 3.8 mW/cm^2 on the whole visible spectrum. Irradiation with red light was carried out using the same device fitted with an orange filter (0% T at 520 nm and 80% T at 590 nm) leading to a fluence of 2 mW/cm^2.
Plates were reincubated for 3 days before evaluation of the cell survival using the MTT assay (T. Mosmann, “Rapid calorimetric assay for cellular growth and survival. Application to proliferation assays”. J. Immunol. Methods 65,55-63,1983) using 30 min incubation with 100 μg well of 3-[4,5-dimethylthiazol-2-yl]-2,5-diphenyl tetrazolium bromide (MTT, Sigma). After removal of the medium, formazan crystals were taken up with 100 μL of DMSO and absorbance at 540 ni was measured with a Bio-Rad microplate reader (model 450); survival was expressed as % of untreated controls.

L-1210 cells = assay: Cytotoxicity L-1210 (no light), cytostatic activity; assay type: cell-based, human; details: no light
Source text: Column L1210 corresponds to the cytostatic activity.

[3] = read-out: Y79 IC50 (μM) With 2J/cm^2, irradiation with filter (0% T at 520 nm, 80% T at 590 nm), 3.5 mW/cm^2, 10 min
[4] = read-out: Y79 IC50 (μM) without light, without light (cytotoxic activity)
[5] = read-out: HT 29 IC50 (μM) with 2J/cm^2, irradiation with filter (0% T at 520 nm, 80% T at 590 nm), 3.5 mW/cm^2, 10 min
[6] = read-out: HT 29 IC50 (μM) without light, without light (cytotoxic activity)

How did the “Photocytotoxicity RBY-79, % at 2 μg/ml” value [1] turn out when `OC[C@H]1O[C@H](Sc2c(F)c(F)c(/C3=c4\cc/c([nH]4)=C(\c4c(F)c(F)c(F)c(F)c4F)C4=NC(C=C4)[C@@H](c4c(F)c(F)c(F)c(F)c4F)c4ccc([nH]4)/C(c4c(F)c(F)c(S[C@H]5O[C@H](CO)[C@@H](O)[C@H](O)[C@@H]5O)c(F)c4F)=C4/C=CC3=N4)c(F)c2F)[C@@H](O)[C@@H](O)C1O` (stereo partly drawn) [Compound 31] was run?
Its value is 80% 2 μg/ml.

Which results are given for `OC[C@H]1O[C@H](Sc2c(F)c(F)c(-c3c4nc(c(-c5c(F)c(F)c(S[C@H]6O[C@H](CO)[C@@H](O)[C@H](O)[C@@H]6O)c(F)c5F)c5ccc([nH]5)c(-c5c(F)c(F)c(S[C@H]6O[C@H](CO)[C@@H](O)[C@H](O)[C@@H]6O)c(F)c5F)c5nc(c(-c6c(F)c(F)c(S[C@H]7O[C@H](CO)[C@@H](O)[C@H](O)[C@@H]7O)c(F)c6F)c6ccc3[nH]6)C=C5)C=C4)c(F)c2F)[C@@H](O)[C@@H](O)[C@@H]1O` [Compound 29, TPP F4(p-S-α-MannOH)4]?
IC50 [1, 3]: 3.3 µM; IC50 [1, 4]: > 10 µM; IC50 [2, 5]: 2.4 µM; IC50 [2, 6]: > 10 µM

How did the “Cytotoxicity L-1210 (no light), % at 10 μg/ml” value (L-1210 cells) turn out when `O[C@@H]1[C@@H](O)[C@H](SCc2ccc(-c3c4nc(c(-c5ccc(CS[C@@H]6OC[C@@H](O)[C@H](O)[C@H]6O)cc5)c5ccc([nH]5)c(-c5ccc(CS[C@@H]6OC[C@@H](O)[C@H](O)[C@H]6O)cc5)c5nc(c(-c6ccc(CS[C@@H]7OC[C@@H](O)[C@H](O)[C@H]7O)cc6)c6ccc3[nH]6)C=C5)C=C4)cc2)OC[C@H]1O` [Compound 64, TPP(p-CH2-S-β-XylOH)4] was run?
Its value is 32%.

What about the “RBY-79, concentration giving 50% with light or not” value ([1]; 50% effect, with light or not) of the same compound?
Its value is 50% at 7 μg/ml.

And the “Y79 IC50 (μM) With 2J/cm^2” value ([1]; irradiation with filter (0% T at 520 nm, 80% T at 590 nm), 3.5 mW/cm^2, 10 min)?
Its value is “Inactive”.

What about the IC50 [1, 4] of the same compound?
The IC50 was 3.8 µM.

What about the “cytotoxic for Y79 (in words)” value [1] of the same compound?
The value was “cytotoxic”.

What about the “Photocytotoxicity HT 29, % at 10 μg/ml” value ([2]; 10 μg/ml) of the same compound?
Its value is 30% at.

What about the IC50 [2, 5] of the same compound?
The IC50 was 4.5 µM.

And the IC50 [2, 6]?
Its IC50 is over 10 µM.

How did the “Cytotoxicity L-1210 (no light), % at 10 μg/ml” value (L-1210 cells) turn out when TPP(p-OC3-S-β-GluOH)3 [Compound 23] was run?
The value was 0% 10 μg/ml.

What about the “Photocytotoxicity RBY-79, concentration giving 50%” value ([1]; 50% effect) of the same compound?
The value was 3 µg/mL.

And the IC50 [1, 3]?
Its IC50 is 6.5 µM.

What about the IC50 [1, 4] of the same compound?
The IC50 was over 10 µM.

What about the “Photocytotoxicity HT 29, concentration giving 50%” value [2] of the same compound?
The value was 6 µg/mL.

And the IC50 [2, 5]?
The IC50 was 11 µM.

What about the IC50 [2, 6] of the same compound?
Its IC50 is 13 µM.

Which “Cytotoxicity L-1210 (no light), % at 10 μg/ml” value (L-1210 cells) does the source give for `OC[C@H]1O[C@@H](Sc2c(F)c(F)c(-c3c4nc(c(-c5c(F)c(F)c(S[C@@H]6O[C@H](CO)[C@@H](O)[C@H](O)[C@H]6O)c(F)c5F)c5ccc([nH]5)c(-c5c(F)c(F)c(S[C@@H]6O[C@H](CO)[C@@H](O)[C@H](O)[C@H]6O)c(F)c5F)c5nc(c(-c6c(F)c(F)c(S[C@@H]7O[C@H](CO)[C@@H](O)[C@H](O)[C@H]7O)c(F)c6F)c6ccc3[nH]6)C=C5)C=C4)c(F)c2F)[C@H](O)[C@@H](O)[C@@H]1O` [Compound 25, TPP F4(p-S-β-GluOH)4] here?
Its value is 18% 10 μg/ml.

And the “Photocytotoxicity RBY-79, concentration giving 50%” value ([1]; 50% effect)?
The value was “inactive”.

What about the IC50 [1, 3] of the same compound?
Its IC50 is 4 µM.

What about the IC50 [1, 4] of the same compound?
Its IC50 is over 10 µM.

What about the “Photocytotoxicity HT 29, concentration giving 50%” value [2] of the same compound?
Its value is “inactive”.

What about the IC50 [2, 5] of the same compound?
Its IC50 is over 10 µM.

What about the IC50 [2, 6] of the same compound?
The IC50 was over 10 µM.

`Oc1ccc(-c2c3nc(c(-c4ccc(O)cc4)c4ccc([nH]4)c(-c4ccc(O)cc4)c4nc(c(-c5ccccc5)c5ccc2[nH]5)C=C4)C=C3)cc1` [TPP(p-OH)3, reference compound] was tested. Which IC50 [1, 3] did it give?
The IC50 was 1.8 ± 0.1 µM.

What about the IC50 [1, 4] of the same compound?
The IC50 was over 10 µM.

And the IC50 [2, 5]?
Its IC50 is 1.65 ± 0.07 µM.

And the IC50 [2, 6]?
The IC50 was over 15 µM.

Which “Photocytotoxicity RBY-79, % at 10 μg/ml white light” value ([1]; 10 μg/ml, white light) does the source give for TPPF4(p-O-β-GluOH)4 [Compound 63] here?
The value was 37%.

And the IC50 [1, 3]?
Its IC50 is over 10 µM.

And the IC50 [1, 4]?
Its IC50 is over 10 µM.

And the IC50 [2, 5]?
The IC50 was over 10 µM.

What about the IC50 [2, 6] of the same compound?
The IC50 was over 10 µM.

Which IC50 [1, 3] does the source give for `OC[C@H]1O[C@@H](Oc2ccc(-c3c4nc(c(-c5ccc(O[C@@H]6O[C@H](CO)[C@@H](O)[C@H](O)[C@H]6O)cc5)c5ccc([nH]5)c(-c5ccc(O[C@@H]6O[C@H](CO)[C@@H](O)[C@H](O)[C@H]6O)cc5)c5nc(c(-c6ccc(O[C@@H]7O[C@H](CO)[C@@H](O)[C@H](O)[C@H]7O)cc6)c6ccc3[nH]6)C=C5)C=C4)cc2)[C@H](O)[C@@H](O)[C@@H]1O` [TPP(p-O-β-GluOH)4, reference compound] here?
Its IC50 is 5.2 ± 4 µM.

And the IC50 [1, 4]?
Its IC50 is 7 ± 4 µM.

What about the IC50 [2, 5] of the same compound?
The IC50 was over 10 µM.

What about the IC50 [2, 6] of the same compound?
The IC50 was over 10 µM.

`O[C@@H]1[C@@H](O)[C@H](Sc2c(F)c(F)c(-c3c4nc(c(-c5c(F)c(F)c(S[C@@H]6OC[C@@H](O)[C@H](O)[C@H]6O)c(F)c5F)c5ccc([nH]5)c(-c5c(F)c(F)c(S[C@@H]6OC[C@@H](O)[C@H](O)[C@H]6O)c(F)c5F)c5nc(c(-c6c(F)c(F)c(S[C@@H]7OC[C@@H](O)[C@H](O)[C@H]7O)c(F)c6F)c6ccc3[nH]6)C=C5)C=C4)c(F)c2F)OC[C@H]1O` [Compound 27, TPP F4(p-S-β-XylOH)4] was tested. Which “Cytotoxicity L-1210 (no light), concentration giving 50%” value (L-1210 cells; 50% effect) did it give?
Its value is 14 µg/mL.

And the “Photocytotoxicity RBY-79, concentration giving 50%” value ([1]; 50% effect)?
Its value is 50% 1.6 μg/ml.

What about the IC50 [1, 3] of the same compound?
Its IC50 is 1 µM.

And the “Y79 IC50 (μM) without light” value ([1]; without light (cytotoxic activity))?
Its value is “Inactive for μM”.

What about the “Photocytotoxicity HT 29, concentration giving 50%” value [2] of the same compound?
The value was 7.5 µg/mL.

What about the IC50 [2, 5] of the same compound?
The IC50 was 5 µM.

What about the IC50 [2, 6] of the same compound?
The IC50 was over 10 µM.

What does the source list for `OC[C@H]1O[C@@H](Oc2ccc(-c3c4nc(c(-c5ccc(O[C@@H]6O[C@H](CO)[C@@H](O)[C@H](O)[C@H]6O)cc5)c5ccc([nH]5)c(-c5ccc(O[C@@H]6O[C@H](CO)[C@@H](O)[C@H](O)[C@H]6O)cc5)c5nc(c(-c6ccccc6)c6ccc3[nH]6)C=C5)C=C4)cc2)[C@H](O)[C@@H](O)[C@@H]1O` [TPP(p-O-β-GluOH)3, reference compound]?
IC50 [1, 3]: 0.9 µM; IC50 [1, 4]: > 15 µM; IC50 [2, 5]: 1.5 ± 0.2 µM; IC50 [2, 6]: > 15 µM

With `OC[C@H]1O[C@H](SCCOCCOCCOc2ccc(-c3c4nc(c(-c5ccc(OCCOCCOCCS[C@H]6O[C@H](CO)[C@@H](O)[C@H](O)[C@@H]6O)cc5)c5ccc([nH]5)c(-c5ccc(OCCOCCOCCS[C@H]6O[C@H](CO)[C@@H](O)[C@H](O)[C@@H]6O)cc5)c5nc(c(-c6ccccc6)c6ccc3[nH]6)C=C5)C=C4)cc2)[C@@H](O)[C@@H](O)[C@@H]1O` [Compound 74, 5,10,15-tri(para-10-S-α-D-thiomanosyloxy-O-triethylene glycoloxyphenyl)-20-phenylporphyrin] as the compound, how does the IC50 [1, 3] read?
Its IC50 is 0.5 ± 0.3 µM.

What about the IC50 [1, 4] of the same compound?
Its IC50 is 11 ± 5 µM.

What about the IC50 [2, 5] of the same compound?
Its IC50 is 4.8 µM.

And the IC50 [2, 6]?
Its IC50 is 10.5 µM.

With `Oc1ccc(-c2c3nc(c(-c4ccc(O)cc4)c4ccc([nH]4)c(-c4ccc(O)cc4)c4nc(c(-c5ccc(O)cc5)c5ccc2[nH]5)C=C4)C=C3)cc1` [TPP(p-OH)4, reference compound] as the compound, how does the IC50 [1, 3] read?
Its IC50 is 0.3 µM.

And the IC50 [1, 4]?
The IC50 was 4.7 ± 2.5 µM.

And the “cytotoxic for Y79 (in words)” value [1]?
The value was “cytotoxic”.

What about the IC50 [2, 5] of the same compound?
The IC50 was 0.8 ± 1 µM.

And the IC50 [2, 6]?
The IC50 was 7.75 ± 3 µM.

And the “cytotoxic for HT29 (in words)” value [2]?
The value was “cytotoxic”.

What does the source list for `OC[C@H]1O[C@H](Sc2c(F)c(F)c(-c3c4nc(c(-c5c(F)c(F)c(S[C@H]6O[C@H](CO)[C@@H](O)[C@H](O)[C@@H]6O)c(F)c5F)c5ccc([nH]5)c(-c5c(F)c(F)c(S[C@H]6O[C@H](CO)[C@@H](O)[C@H](O)[C@@H]6O)c(F)c5F)c5nc(c(-c6c(F)c(F)c(F)c(F)c6F)c6ccc3[nH]6)C=C5)C=C4)c(F)c2F)[C@@H](O)[C@@H](O)[C@@H]1O` [Compound 33, TPP F4(p-S-α-MannOH)3]?
Photocytotoxicity RBY-79, % at 2 μg/ml [1]: 90% 2 μg/ml; IC50 [1, 3]: 2.7 µM; IC50 [1, 4]: > 10 µM; IC50 [2, 5]: 1.7 µM; IC50 [2, 6]: > 10 µM

Which results are given for `Oc1cccc(-c2c3nc(c(-c4cccc(O)c4)c4ccc([nH]4)c(-c4cccc(O)c4)c4nc(c(-c5cccc(O)c5)c5ccc2[nH]5)CC4)C=C3)c1` [m-THPC, reference compound]?
IC50 ([1]; Homo sapiens, Y79, light or radiation study, 10 min, read-out: Y79 IC50 (μM) With 2J/cm^2): 0.6 ± 0.03 µM; IC50 ([1]; Homo sapiens, Y79, read-out: Y79 IC50 (μM) without light): > 10 µM; cytotoxic for Y79 (in words) [1]: cytotoxic; IC50 ([2]; Homo sapiens, HT-29, light or radiation study, 10 min, read-out: HT 29 IC50 (μM) with 2J/cm^2): 0.8 ± 0.3 µM; IC50 ([2]; Homo sapiens, HT-29, read-out: HT 29 IC50 (μM) without light): > 10 µM; cytotoxic for HT29 (in words) [2]: cytotoxic
